According to patent US20260207602A1, “EGFR INHIBITORS” (Blueprint Medicines Corporation, priority 2022, published 2026):
pIC50: −log10 of the molar value.

What was measured:
[1] = molecular target: T1, EGFR L858R (Homo sapiens, UniProt P00533, L858R); test: Biochemical EGFR inhibition assay (Caliper mobility shift), EGFR L858R; conditions: biochemical Caliper mobility shift assay, EGFR L858R enzyme; read-out: Enz EGFR L858R IC50
T1 construct: purchased SignalChem E10-122BG
In short: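 Compounds were titrated against enzyme phosphorylating a 5-FAM peptide (2.5 µM) in 100 mM HEPES, pH 7.5, 10 mM MgCl2, 1 mM DTT. ATP was held at 1.0 mM or at Km, and reactions ran at 25 °C until 10–20% conversion before EDTA quench. Apparent IC50 values come from percent activity plotted against log concentration.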

[2] = molecular target: intracellular phosphorylation of EGFR (Tyr1068) in PC-9 cells (Homo sapiens, UniProt P00533, DEL746-750); test: PC-9 pEGFR AlphaLISA assay; assay type: cell-based; conditions: 4 hours incubation, read-out: Phos EGFR PC9 IC50
intracellular phosphorylation of EGFR (Tyr1068) in PC-9 cells, sequence (P00533 with tags, fused parts or gaps DEL746-750): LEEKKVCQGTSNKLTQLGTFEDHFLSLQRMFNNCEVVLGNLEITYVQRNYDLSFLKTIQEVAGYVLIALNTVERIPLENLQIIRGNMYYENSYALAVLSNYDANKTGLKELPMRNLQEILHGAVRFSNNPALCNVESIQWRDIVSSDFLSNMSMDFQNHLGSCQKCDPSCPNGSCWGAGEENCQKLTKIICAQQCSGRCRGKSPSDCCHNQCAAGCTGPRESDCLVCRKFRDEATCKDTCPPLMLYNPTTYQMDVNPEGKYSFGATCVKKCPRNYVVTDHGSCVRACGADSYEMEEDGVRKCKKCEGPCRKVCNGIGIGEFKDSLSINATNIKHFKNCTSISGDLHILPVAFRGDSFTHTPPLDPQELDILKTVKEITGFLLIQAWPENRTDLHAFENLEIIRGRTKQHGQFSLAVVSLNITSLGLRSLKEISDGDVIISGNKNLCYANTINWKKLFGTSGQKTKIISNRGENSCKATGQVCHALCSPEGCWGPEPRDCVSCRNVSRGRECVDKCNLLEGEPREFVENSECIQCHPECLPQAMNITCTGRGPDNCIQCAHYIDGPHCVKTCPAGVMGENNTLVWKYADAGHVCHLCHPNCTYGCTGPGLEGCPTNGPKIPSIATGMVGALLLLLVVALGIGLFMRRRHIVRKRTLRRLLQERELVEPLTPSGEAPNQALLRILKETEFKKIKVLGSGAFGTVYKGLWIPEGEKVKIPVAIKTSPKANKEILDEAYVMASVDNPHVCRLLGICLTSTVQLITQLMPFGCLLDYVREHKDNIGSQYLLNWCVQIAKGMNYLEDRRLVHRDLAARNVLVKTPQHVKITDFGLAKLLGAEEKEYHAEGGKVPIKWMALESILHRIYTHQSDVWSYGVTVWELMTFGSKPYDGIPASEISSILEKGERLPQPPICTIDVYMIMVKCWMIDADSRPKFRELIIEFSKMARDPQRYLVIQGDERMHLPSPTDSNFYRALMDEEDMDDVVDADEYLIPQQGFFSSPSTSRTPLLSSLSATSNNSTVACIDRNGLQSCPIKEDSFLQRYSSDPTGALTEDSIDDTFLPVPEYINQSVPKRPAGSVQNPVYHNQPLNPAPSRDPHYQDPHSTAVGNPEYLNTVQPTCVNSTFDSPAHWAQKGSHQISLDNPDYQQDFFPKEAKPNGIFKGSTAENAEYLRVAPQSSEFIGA
In short: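 PC-9 cells (EGFR del746-750) in phenol-free DMEM/10% FBS, adhered overnight, then exposed to 10-point 4-fold compound dilutions for 4 h at 37 °C. Lysates assayed for pEGFR Tyr1068 by AlphaLISA SureFire Ultra; IC50 from percent pEGFR inhibition vs log concentration.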

[3] = molecular target: T2, EGFR (d746-750) (Homo sapiens, UniProt P00533, DEL746-750); test: Biochemical EGFR inhibition assay (Caliper mobility shift), EGFR (d746-750); conditions: biochemical Caliper mobility shift assay, EGFR Exon 19-del enzyme; read-out: Enz EGFR Exon 19-del IC50
T2 construct: purchased SignalChem E10-122JG
T2 sequence (P00533 with tags, fused parts or gaps DEL746-750 limits assumed): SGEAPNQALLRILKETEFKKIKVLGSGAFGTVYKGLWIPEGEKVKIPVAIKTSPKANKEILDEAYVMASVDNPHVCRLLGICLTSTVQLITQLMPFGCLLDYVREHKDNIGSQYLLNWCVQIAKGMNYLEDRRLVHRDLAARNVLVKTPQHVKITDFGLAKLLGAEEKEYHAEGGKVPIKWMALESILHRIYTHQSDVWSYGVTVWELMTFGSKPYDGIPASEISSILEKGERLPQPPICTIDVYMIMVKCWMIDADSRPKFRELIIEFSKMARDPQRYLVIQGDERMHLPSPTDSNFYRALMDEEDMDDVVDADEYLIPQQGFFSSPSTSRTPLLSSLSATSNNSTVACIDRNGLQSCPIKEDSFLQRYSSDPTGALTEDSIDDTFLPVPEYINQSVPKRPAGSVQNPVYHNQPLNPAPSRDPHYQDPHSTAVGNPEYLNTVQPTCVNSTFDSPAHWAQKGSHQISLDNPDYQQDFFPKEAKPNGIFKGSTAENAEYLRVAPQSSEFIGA
Procedure: Inhibitory effects of the compounds of the disclosure were measured in biochemical assays that measure the phosphorylation activity of EGFR enzyme phosphorylates 2.5 micromolar 5-FAM-[…]-CONH2 peptide substrate (ProfilerPro Kinase Peptide Substrate 22, PerkinElmer, Part #760366) in the presence of adenosine-5′-triphosphate (ATP) and varying concentrations of the test compound in 100 mM 2-[4-(2-hydroxyethyl)piperazin-1-yl]ethanesulfonic acid (HEPES), pH 7.5, 10 mM MgCl2, 0.015% Brij-35, 1 mM dithiothreitol (DTT), 1.0% dimehylsulfoxide (DMSO). Assays were performed at 1.0 mM ATP or at ATP Km of the EGFR enzymes. Reactions proceeded until between 10% to 20% total peptides were phosphorylated at room temperature (25° C.) and were terminated with 35 mM 2,2′,2″,2′″-(ethane-1,2-diyldinitrilo)tetraacetic acid (EDTA). Product was detected using the Caliper mobility shift detection method where the phosphorylated peptide (product) and substrate were electrophoretically separated and measured. Percent activity was plotted against log concentration of compound and points to generate an apparent IC50. The following enzyme forms of • EGFR were examples that were used in these assays: • EGFR WT (SignalChem, E10-112G) • EGFR L858R (SignalChem, E10-122BG) • EGFR (d746-750) (SignalChem, E10-122JG) • EGFR L858R C797S (SignalChem, E10-122ZG) • EGFR (d746-750) C797S (SignalChem, E10-122TG)

T1 sequence (P00533 25-1210 L858R): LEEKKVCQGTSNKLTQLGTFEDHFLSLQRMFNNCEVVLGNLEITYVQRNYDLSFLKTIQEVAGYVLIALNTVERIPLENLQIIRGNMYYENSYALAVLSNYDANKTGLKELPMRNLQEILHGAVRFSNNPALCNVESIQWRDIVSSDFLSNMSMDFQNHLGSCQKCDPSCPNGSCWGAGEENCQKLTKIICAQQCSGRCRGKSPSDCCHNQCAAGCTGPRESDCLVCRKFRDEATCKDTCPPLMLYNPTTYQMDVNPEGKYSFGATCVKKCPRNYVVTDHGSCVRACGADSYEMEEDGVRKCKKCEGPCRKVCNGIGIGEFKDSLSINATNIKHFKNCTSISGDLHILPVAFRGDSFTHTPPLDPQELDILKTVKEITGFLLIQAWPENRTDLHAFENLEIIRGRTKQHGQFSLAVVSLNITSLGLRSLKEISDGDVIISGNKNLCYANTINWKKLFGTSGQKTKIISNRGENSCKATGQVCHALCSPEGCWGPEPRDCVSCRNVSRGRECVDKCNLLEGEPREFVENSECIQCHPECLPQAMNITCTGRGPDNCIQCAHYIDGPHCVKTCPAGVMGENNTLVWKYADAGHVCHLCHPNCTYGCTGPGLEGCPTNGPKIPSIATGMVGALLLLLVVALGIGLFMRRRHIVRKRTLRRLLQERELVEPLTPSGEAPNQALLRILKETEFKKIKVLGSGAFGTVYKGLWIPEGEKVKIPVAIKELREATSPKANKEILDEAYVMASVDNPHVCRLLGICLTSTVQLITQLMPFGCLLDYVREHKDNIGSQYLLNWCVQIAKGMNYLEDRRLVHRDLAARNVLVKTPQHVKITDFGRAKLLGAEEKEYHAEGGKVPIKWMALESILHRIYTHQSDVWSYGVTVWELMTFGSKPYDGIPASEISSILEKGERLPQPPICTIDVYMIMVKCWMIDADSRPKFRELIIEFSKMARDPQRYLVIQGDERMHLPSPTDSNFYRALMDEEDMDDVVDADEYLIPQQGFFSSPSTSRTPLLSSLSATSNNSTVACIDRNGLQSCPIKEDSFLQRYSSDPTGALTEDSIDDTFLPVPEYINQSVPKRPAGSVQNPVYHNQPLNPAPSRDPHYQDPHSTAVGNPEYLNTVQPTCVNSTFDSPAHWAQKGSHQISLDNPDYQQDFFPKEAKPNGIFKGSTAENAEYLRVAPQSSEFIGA

| pIC50 [1] | pIC50 [2] | pIC50 [3] | Compound |
| --- | --- | --- | --- |
| ≥ 8.00 | ≥ 8.00 | ≥ 8.00 | CC(C)N1CC[C@@H](Oc2cc(-c3cnn(C)c3)cc3ncnc(Nc4ccc5ncsc5c4)c23)C1=O (single isomer, unassigned) [Example 63] |
| ≥ 8.00 | 7.30 to 8.00 | ≥ 8.00 | CN1CC[C@H](Oc2cc(-c3cnn(C)c3)cc3ncnc(Nc4ccc5ncsc5c4F)c23)C1=O (single isomer, unassigned) [Example 73] |
| ≥ 8.00 | 7.30 to 8.00 | ≥ 8.00 | COc1nn(C)cc1-c1cc(O[C@H]2CCN(C)C2=O)c2c(Nc3ccc4ncsc4c3)ncnc2c1 (single isomer, unassigned) [Example 74] |
| ≥ 8.00 | 7.30 to 8.00 | ≥ 8.00 | COc1cc(O[C@H](C)C2COC2)c2c(Nc3ccc4ncsc4c3F)ncnc2c1 (single isomer, unassigned) [Example 82] |
| ≥ 8.00 | ≥ 8.00 | ≥ 8.00 | COCCOc1cc(O[C@H](C)C2COC2)c2c(Nc3ccc4ncsc4c3F)ncnc2c1 (single isomer, unassigned) [Example 84] |
| ≥ 8.00 | ≥ 8.00 | ≥ 8.00 | C[C@@H](Oc1cc(-c2cnn(C)c2)cc2ncnc(Nc3ccc4ncsc4c3F)c12)C1(C)COC1 (single isomer, unassigned) [Example 86] |
| ≥ 8.00 | ≥ 8.00 | ≥ 8.00 | C[C@@H](Oc1cc(-c2cnn(C)c2)cc2ncnc(Nc3ccc4ncsc4c3F)c12)[C@H]1CCOC1 (single isomer, unassigned) [Example 88] |
| ≥ 8.00 | 7.30 to 8.00 | ≥ 8.00 | C[C@@H](Oc1cc(N2CCN(C)CC2)cc2ncnc(Nc3ccc4ncsc4c3)c12)C1COC1 (single isomer, unassigned) [Example 96] |
| 7.30 to 8.00 | 7.30 to 8.00 | ≥ 8.00 | C[C@@H]1CN(c2cc(O[C@H](C)C3COC3)c3c(Nc4ccc5ncsc5c4F)ncnc3c2)CCN1 (single isomer, unassigned) [Example 100] |
| 7.30 to 8.00 | 7.30 to 8.00 | 7.30 to 8.00 | C[C@@H]1CN(c2cc(O[C@H](C)C3COC3)c3c(Nc4ccc5ncsc5c4F)ncnc3c2)CCN1 (single isomer, unassigned) [Example 101] |
| ≥ 8.00 | ≥ 8.00 | ≥ 8.00 | C[C@@H]1CN(c2cc(O[C@H](C)C3COC3)c3c(Nc4ccc5ncsc5c4F)ncnc3c2)CCN1C (single isomer, unassigned) [Example 102] |

More lines, now with the values behind:

| Compound | pIC50 [1] | pIC50 [2] | pIC50 [3] |
| --- | --- | --- | --- |
| CCN1CC[C@H](Oc2cc(-c3cnn(C)c3)cc3ncnc(Nc4ccc5ncsc5c4)c23)C1=O (single isomer, unassigned) [Example 59, (S)-3-((4-(benzo[d]thiazol-6-ylamino)-7-(1-methyl-1H-pyrazol-4-yl)quinazolin-5-yl)oxy)-1-ethylpyrrolidin-2-one or (R)-3-((4-(benzo[d]thiazol-6-ylamino)-7-(1-methyl-1H-pyrazol-4-yl)quinazolin-5-yl)oxy)-1-ethylpyrrolidin-2-one] | ≥ 8.00 | ≥ 8.00 | ≥ 8.00 |
| CCN1CC[C@H](Oc2cc(-c3cnn(C)c3)cc3ncnc(Nc4ccc5ncsc5c4)c23)C1=O (single isomer, unassigned) [Example 60, (S)-3-((4-(benzo[d]thiazol-6-ylamino)-7-(1-methyl-1H-pyrazol-4-yl)quinazolin-5-yl)oxy)-1-ethylpyrrolidin-2-one or (R)-3-((4-(benzo[d]thiazol-6-ylamino)-7-(1-methyl-1H-pyrazol-4-yl)quinazolin-5-yl)oxy)-1-ethylpyrrolidin-2-one] | ≥ 8.00 | 7.30 to 8.00 | ≥ 8.00 |
| CC(C)N1CC[C@@H](Oc2cc(-c3cnn(C)c3)cc3ncnc(Nc4ccc5ncsc5c4)c23)C1=O (single isomer, unassigned) [Example 64] | ≥ 8.00 | 7.30 to 8.00 | ≥ 8.00 |
| C[C@H](Oc1cc(-c2cnn(C)c2)cc2ncnc(Nc3ccc4ncsc4c3F)c12)C1COC1 (single isomer, unassigned) [Example 71, (S)-7-fluoro-N-(7-(1-methyl-1H-pyrazol-4-yl)-5-(1-(oxetan-3-yl)ethoxy)quinazolin-4-yl)benzo[d]thiazol-6-amine or (R)-7-fluoro-N-(7-(1-methyl-1H-pyrazol-4-yl)-5-(1-(oxetan-3-yl)ethoxy)quinazolin-4-yl)benzo[d]thiazol-6-amine] | ≥ 8.00 | ≥ 8.00 | ≥ 8.00 |
| CN1CC[C@H](Oc2cc(-c3cnn(C)c3)cc3ncnc(Nc4ccc5ncsc5c4F)c23)C1=O (single isomer, unassigned) [Example 72] | ≥ 8.00 | ≥ 8.00 | ≥ 8.00 |
| COc1nn(C)cc1-c1cc(O[C@H]2CCN(C)C2=O)c2c(Nc3ccc4ncsc4c3)ncnc2c1 (single isomer, unassigned) [Example 75] | ≥ 8.00 | ≥ 8.00 | ≥ 8.00 |
| COc1nn(C)cc1-c1cc(O[C@H](C)C2COC2)c2c(Nc3ccc4ncsc4c3F)ncnc2c1 (single isomer, unassigned) [Example 78] | ≥ 8.00 | ≥ 8.00 | ≥ 8.00 |
| COc1cn(C)nc1-c1cc(O[C@H](C)C2COC2)c2c(Nc3ccc4ncsc4c3F)ncnc2c1 (single isomer, unassigned) [Example 80] | ≥ 8.00 | ≥ 8.00 | ≥ 8.00 |
| COc1cn(C)nc1-c1cc(O[C@H](C)C2COC2)c2c(Nc3ccc4ncsc4c3F)ncnc2c1 (single isomer, unassigned) [Example 81] | ≥ 8.00 | 7.30 to 8.00 | ≥ 8.00 |
| COc1cc(O[C@H](C)C2COC2)c2c(Nc3ccc4ncsc4c3F)ncnc2c1 (single isomer, unassigned) [Example 83] | ≥ 8.00 | ≥ 8.00 | ≥ 8.00 |
| COCCOc1cc(O[C@H](C)C2COC2)c2c(Nc3ccc4ncsc4c3F)ncnc2c1 (single isomer, unassigned) [Example 85] | ≥ 8.00 | 7.30 to 8.00 | ≥ 8.00 |
| CC[C@@H](Oc1cc(-c2cnn(C)c2)cc2ncnc(Nc3ccc4ncsc4c3F)c12)C1COC1 (single isomer, unassigned) [Example 92] | ≥ 8.00 | ≥ 8.00 | ≥ 8.00 |
| C[C@@H](Oc1cc(N2CCN(C)CC2)cc2ncnc(Nc3ccc4ncsc4c3F)c12)C1COC1 (single isomer, unassigned) [Example 94] | ≥ 8.00 | 7.30 to 8.00 | ≥ 8.00 |
| C[C@@H](Oc1cc(N2CCN(C)CC2)cc2ncnc(Nc3ccc4ncsc4c3F)c12)C1COC1 (single isomer, unassigned) [Example 95] | 7.30 to 8.00 | 7.30 to 8.00 | ≥ 8.00 |
| C[C@@H](Oc1cc(N2CCN(C)CC2)cc2ncnc(Nc3ccc4ncsc4c3)c12)C1COC1 (single isomer, unassigned) [Example 97] | 7.30 to 8.00 | 7.30 to 8.00 | ≥ 8.00 |
| C[C@@H](Oc1cc(N2CCN(C)[C@@H](C)C2)cc2ncnc(Nc3ccc4ncsc4c3F)c12)C1COC1 (single isomer, unassigned) [Example 98] | ≥ 8.00 | 7.30 to 8.00 | ≥ 8.00 |
| C[C@@H](Oc1cc(N2CCN(C)[C@@H](C)C2)cc2ncnc(Nc3ccc4ncsc4c3F)c12)C1COC1 (single isomer, unassigned) [Example 99] | 7.30 to 8.00 | 7.30 to 8.00 | ≥ 8.00 |
| C[C@@H]1CN(c2cc(O[C@H](C)C3COC3)c3c(Nc4ccc5ncsc5c4F)ncnc3c2)CCN1C (single isomer, unassigned) [Example 103] | 7.30 to 8.00 | ≥ 8.00 | ≥ 8.00 |
| C[C@@H]1CNCCN1c1cc(O[C@H](C)C2COC2)c2c(Nc3ccc4ncsc4c3F)ncnc2c1 (single isomer, unassigned) [Example 104] | ≥ 8.00 | 7.30 to 8.00 | ≥ 8.00 |
| C[C@@H]1CNCCN1c1cc(O[C@H](C)C2COC2)c2c(Nc3ccc4ncsc4c3F)ncnc2c1 (single isomer, unassigned) [Example 105] | 7.30 to 8.00 | 7.30 to 8.00 | ≥ 8.00 |
